Experimental data published in ChEMBL document CHEMBL4000195, “Design and synthesis of novel 7-aminosubstituted pyrido[2,3-b]pyrazines exhibiting anti-breast cancer activity” (Eur J Med Chem, 2017).
Calls of active or inactive are those of the source. No cut-off for these calls is given here.

Key:
[1] = biological target: Tyrosine-protein kinase ITK/TSK (Homo sapiens) (UniProt Q08881); assay: Inhibition of human wild type partial length ITK (R335 to L620 residues) expressed in bacterial expression system at 10 uM by KinomeScan method relative to control
[2] = system: Mus musculus; assay: In vivo inhibition of SRC phosphorylation at Tyr-416 residue in NOD/SCID mouse tumor xenografted with HER2-amplified human HCC1954 cells at 10 mg/kg, ip administered once daily for 18 days measured after 1 hr last dose by […]; assay type: functional, organism-based
[3] = biological target: Tyrosine-protein kinase Fyn (Homo sapiens) (UniProt P06241); assay: Inhibition of human wild type partial length FYN (T243 to L534 residues) expressed in bacterial expression system at 10 uM by KinomeScan method relative to control
[4] = system: MDA-MB-231; assay: Cytotoxicity against human MDA-MB-231 cells by MTT assay; assay type: functional, cell-based
[5] = Tmax in NOD/SCID mouse at 40 mg/kg, ip administered as single dose by LC-MS/MS method; assay type: ADME, organism-based; conditions: in vivo
[6] = AUC (0 to 8 hrs) in NOD/SCID mouse at 0.5 mg/kg, ip administered as single dose by LC-MS/MS method; assay type: ADME, organism-based; set-up: dose 0.5 mg/kg, time < 8 hr, route intraperitoneal; conditions: in vivo
[7] = system: Phosphatidylinositol 4,5-bisphosphate 3-kinase catalytic subunit alpha isoform (Homo sapiens), P42336 [H1047Y]; assay: Inhibition of human wild type partial length PIK3CA H1047Y mutant (R108 to N1068 residues) expressed in mammalian expression system at 10 uM by KinomeScan method relative to control
[8] = biological target: Dual specificity protein kinase CLK1 (Mus musculus) (UniProt P22518); assay: Inhibition of mouse CLK1
[9] = biological target: Insulin-like growth factor 1 receptor (Homo sapiens) (UniProt P08069); assay: Inhibition of human wild type partial length IGF1R (L972 to D1294 residues) expressed in bacterial expression system at 10 uM by KinomeScan method relative to control
Sequence of Insulin-like growth factor 1 receptor (Homo sapiens) (P08069 31-736 limits assumed): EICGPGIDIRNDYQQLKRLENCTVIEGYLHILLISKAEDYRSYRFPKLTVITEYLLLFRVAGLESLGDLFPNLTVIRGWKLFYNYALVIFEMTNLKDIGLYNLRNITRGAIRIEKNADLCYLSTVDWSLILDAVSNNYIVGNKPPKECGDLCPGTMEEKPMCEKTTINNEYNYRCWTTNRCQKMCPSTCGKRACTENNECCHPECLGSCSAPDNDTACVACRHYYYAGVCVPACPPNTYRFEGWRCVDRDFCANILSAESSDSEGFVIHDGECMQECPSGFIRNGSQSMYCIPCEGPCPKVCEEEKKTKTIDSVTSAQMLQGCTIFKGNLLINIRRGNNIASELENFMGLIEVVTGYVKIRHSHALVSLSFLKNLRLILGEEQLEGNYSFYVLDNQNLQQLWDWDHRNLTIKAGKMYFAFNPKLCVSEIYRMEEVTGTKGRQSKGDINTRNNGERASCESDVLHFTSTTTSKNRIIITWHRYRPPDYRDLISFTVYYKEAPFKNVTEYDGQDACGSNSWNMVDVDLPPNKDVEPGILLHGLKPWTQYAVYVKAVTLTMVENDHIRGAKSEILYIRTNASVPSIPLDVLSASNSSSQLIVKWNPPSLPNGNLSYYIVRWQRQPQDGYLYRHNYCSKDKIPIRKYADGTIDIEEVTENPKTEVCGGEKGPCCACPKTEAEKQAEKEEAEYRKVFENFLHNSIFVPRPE
Sequence of Insulin-like growth factor 1 receptor (Homo sapiens) (P08069 741-1367 limits assumed): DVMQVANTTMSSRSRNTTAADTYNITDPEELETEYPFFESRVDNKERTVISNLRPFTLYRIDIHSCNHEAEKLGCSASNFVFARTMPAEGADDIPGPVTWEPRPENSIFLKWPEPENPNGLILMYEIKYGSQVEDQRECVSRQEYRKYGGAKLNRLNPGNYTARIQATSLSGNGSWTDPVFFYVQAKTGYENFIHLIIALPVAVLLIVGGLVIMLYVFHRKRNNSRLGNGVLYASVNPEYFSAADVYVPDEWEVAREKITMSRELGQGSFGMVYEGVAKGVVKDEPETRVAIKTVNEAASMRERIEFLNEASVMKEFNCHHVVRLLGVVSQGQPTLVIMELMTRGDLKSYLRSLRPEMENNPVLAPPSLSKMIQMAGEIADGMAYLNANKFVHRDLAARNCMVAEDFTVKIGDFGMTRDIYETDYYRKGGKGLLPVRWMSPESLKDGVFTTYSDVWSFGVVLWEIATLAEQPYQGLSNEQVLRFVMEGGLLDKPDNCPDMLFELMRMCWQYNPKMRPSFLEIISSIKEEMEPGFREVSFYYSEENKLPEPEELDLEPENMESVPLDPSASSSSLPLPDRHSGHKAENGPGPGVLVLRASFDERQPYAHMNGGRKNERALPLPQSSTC

[10] = biological target: Glycogen synthase kinase-3 (Sus scrofa) (UniProt B2LUN4+I6LNT8); assay: Inhibition of pig GSK3alpha/beta using GS-1 as substrate in presence of [gamma33P]ATP after 30 mins by scintillation counting method
[11] = system: HCC1954; assay: Cytotoxicity against human HCC1954 cells by MTT assay; assay type: functional, cell-based
[12] = system: MDA-MB-231; assay: Cytotoxicity against human MDA-MB-231 cells at 10 uM by MTT assay; assay type: functional
[13] = biological target: Dual specificity tyrosine-phosphorylation-regulated kinase 1A (Rattus norvegicus) (UniProt Q63470); assay: Inhibition of rat DYRK1A using myelin basic protein as substrate in presence of [gamma33P]ATP after 30 mins by scintillation counting method
[14] = system: HCC1954; assay: Anti-tumor activity against HER2-amplified human HCC1954 cells xenografted in NOD/SCID mouse assessed as tumor weight at 10 mg/kg, ip administered once daily for 18 days measured after 1 hr last dose (reference value: 0.8 +/- 0.07 g); assay type: functional
[15] = system: Mus musculus; assay: Toxicity in NOD/SCID mouse assessed as phenotypic changes at 0.5 mg/kg, po administered as single dose; assay type: organism-based; conditions: in vivo
[16] = AUC (0 to 24 hrs) in NOD/SCID mouse at 10 mg/kg, ip by LC-MS/MS method; assay type: ADME, organism-based; set-up: time < 24 hr, dose 10 mg/kg, route intraperitoneal; conditions: in vivo
[17] = system: HCC1954; assay: Cytotoxicity against human HCC1954 cells at 5 uM by MTT assay; assay type: functional
[18] = biological target: Phosphatidylinositol 4,5-bisphosphate 3-kinase catalytic subunit alpha isoform (Homo sapiens, UniProt P42336, H1047R); assay: Inhibition of PI3Kalpha H1047R mutant (unknown origin) using PIP2 liposomes as substrate in presence of biotin-labeled PIP3 and GST-GRP1-PH by streptavidin-HRP based assays
Sequence of Phosphatidylinositol 4,5-bisphosphate 3-kinase catalytic subunit alpha isoform (Homo sapiens, UniProt P42336, H1047R) (P42336 whole entry H1047R, the tested form may be a part, canonical isoform): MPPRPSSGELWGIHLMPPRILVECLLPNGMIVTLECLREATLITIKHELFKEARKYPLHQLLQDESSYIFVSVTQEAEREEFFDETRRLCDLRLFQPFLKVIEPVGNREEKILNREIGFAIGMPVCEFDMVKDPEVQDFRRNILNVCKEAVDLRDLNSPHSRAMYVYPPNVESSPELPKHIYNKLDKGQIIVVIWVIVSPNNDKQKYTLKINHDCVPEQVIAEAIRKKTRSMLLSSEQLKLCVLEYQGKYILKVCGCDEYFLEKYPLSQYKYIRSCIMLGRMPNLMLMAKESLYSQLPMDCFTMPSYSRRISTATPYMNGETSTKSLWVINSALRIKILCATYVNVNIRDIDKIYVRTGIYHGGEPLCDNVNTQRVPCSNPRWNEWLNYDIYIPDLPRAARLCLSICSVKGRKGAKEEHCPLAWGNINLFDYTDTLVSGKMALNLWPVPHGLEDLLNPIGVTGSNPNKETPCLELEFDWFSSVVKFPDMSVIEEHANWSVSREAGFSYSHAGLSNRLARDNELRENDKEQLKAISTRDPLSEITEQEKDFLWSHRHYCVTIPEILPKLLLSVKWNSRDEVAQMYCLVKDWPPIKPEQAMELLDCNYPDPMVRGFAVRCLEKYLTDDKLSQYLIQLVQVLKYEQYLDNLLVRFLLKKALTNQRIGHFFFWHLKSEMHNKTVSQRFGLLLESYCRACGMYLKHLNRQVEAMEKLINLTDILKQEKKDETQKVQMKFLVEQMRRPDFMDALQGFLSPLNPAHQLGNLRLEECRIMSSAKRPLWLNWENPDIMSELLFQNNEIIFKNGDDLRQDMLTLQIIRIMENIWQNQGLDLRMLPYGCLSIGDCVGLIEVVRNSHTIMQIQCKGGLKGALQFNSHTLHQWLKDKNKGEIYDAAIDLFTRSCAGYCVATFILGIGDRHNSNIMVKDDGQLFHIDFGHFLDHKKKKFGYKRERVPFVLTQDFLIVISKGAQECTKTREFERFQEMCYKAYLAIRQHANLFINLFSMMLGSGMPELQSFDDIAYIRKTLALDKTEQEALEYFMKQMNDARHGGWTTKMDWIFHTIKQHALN

[19] = biological target: Mitogen-activated protein kinase 1 (Homo sapiens) (UniProt P28482); assay: Inhibition of human wild type full length ERK2 (M1 to S360 residues) expressed in bacterial expression system at 10 uM by KinomeScan method relative to control
[20] = biological target: Mitogen-activated protein kinase kinase kinase 4 (Homo sapiens) (UniProt Q9Y6R4); assay: Inhibition of human wild type partial length MAP3K4 (G1319 to E1608 residues) expressed in bacterial expression system at 10 uM by KinomeScan method relative to control
Sequence of Mitogen-activated protein kinase kinase kinase 4 (Homo sapiens) (Q9Y6R4 whole entry, the tested form may be a part, canonical isoform): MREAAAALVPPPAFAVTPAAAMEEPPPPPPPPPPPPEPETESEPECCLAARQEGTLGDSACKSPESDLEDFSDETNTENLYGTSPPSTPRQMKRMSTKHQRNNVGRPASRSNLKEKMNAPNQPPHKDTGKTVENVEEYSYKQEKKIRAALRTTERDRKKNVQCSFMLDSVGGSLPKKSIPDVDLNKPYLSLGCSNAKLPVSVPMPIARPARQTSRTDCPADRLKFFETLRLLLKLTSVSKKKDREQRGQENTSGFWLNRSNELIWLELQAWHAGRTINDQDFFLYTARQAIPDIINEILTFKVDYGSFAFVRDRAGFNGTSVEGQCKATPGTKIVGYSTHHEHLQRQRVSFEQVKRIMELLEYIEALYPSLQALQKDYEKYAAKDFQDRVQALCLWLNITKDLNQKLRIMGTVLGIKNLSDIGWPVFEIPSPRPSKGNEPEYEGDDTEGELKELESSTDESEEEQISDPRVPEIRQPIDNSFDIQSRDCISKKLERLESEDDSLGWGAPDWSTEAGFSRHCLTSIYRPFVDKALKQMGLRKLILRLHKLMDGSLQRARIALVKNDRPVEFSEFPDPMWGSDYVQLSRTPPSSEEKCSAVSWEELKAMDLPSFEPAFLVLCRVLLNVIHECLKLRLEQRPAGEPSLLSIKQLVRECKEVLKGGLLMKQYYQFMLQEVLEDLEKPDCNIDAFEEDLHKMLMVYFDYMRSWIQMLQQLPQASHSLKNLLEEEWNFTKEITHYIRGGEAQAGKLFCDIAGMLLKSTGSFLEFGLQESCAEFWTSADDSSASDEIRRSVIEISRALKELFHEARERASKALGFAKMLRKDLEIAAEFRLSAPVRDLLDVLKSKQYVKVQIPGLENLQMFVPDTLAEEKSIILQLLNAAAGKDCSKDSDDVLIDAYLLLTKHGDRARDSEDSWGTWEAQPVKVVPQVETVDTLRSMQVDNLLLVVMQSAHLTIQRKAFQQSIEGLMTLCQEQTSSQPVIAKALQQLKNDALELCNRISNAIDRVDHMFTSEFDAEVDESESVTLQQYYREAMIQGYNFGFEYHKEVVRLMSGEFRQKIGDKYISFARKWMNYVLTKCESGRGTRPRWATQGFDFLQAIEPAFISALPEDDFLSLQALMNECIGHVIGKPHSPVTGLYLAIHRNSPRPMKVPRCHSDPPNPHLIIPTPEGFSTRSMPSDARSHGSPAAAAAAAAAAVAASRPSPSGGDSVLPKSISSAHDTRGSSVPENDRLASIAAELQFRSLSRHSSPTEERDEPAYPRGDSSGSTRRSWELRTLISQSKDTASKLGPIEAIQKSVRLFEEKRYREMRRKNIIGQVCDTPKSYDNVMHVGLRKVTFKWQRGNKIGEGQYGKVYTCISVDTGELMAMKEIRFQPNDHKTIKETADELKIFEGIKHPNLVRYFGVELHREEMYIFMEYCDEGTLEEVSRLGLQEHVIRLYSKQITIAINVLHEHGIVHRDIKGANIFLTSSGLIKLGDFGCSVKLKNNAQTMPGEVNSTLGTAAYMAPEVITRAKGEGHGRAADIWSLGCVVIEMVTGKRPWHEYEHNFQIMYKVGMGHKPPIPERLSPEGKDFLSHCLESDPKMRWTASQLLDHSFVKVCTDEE

[21] = biological target: Phosphatidylinositol 4,5-bisphosphate 3-kinase catalytic subunit alpha isoform (Homo sapiens, UniProt P42336); assay: Inhibition of human wild type partial length PIK3CA (R108 to N1068 residues) expressed in mammalian expression system at 10 uM by KinomeScan method relative to control
Sequence of Phosphatidylinositol 4,5-bisphosphate 3-kinase catalytic subunit alpha isoform (Homo sapiens, UniProt P42336) (P42336 whole entry, the tested form may be a part, canonical isoform): as the sequence (P42336 whole entry H1047R, the tested form may be a part, canonical isoform) above, with R1047H counted along it

[22] = AUC (0 to 8 hrs) in NOD/SCID mouse at 10 mg/kg, ip administered as single dose by LC-MS/MS method; assay type: ADME, organism-based; set-up: dose 10 mg/kg, time < 8 hr, route intraperitoneal; conditions: in vivo
[23] = biological target: Receptor tyrosine-protein kinase erbB-2 (Homo sapiens) (UniProt P04626); assay: Inhibition of human wild type partial length ERBB2 (K646 to V1225 residues) expressed in mammalian expression system at 10 uM by KinomeScan method relative to control
[24] = system: T47D; assay: Cytotoxicity against human T47D cells at 10 uM by MTT assay; assay type: functional
[25] = biological target: Receptor-type tyrosine-protein kinase FLT3 (Homo sapiens) (UniProt P36888); assay: Inhibition of recombinant human GST-tagged FLT3 (571 to 993 residues) transphosphorylation activity expressed in baculovirus infected Sf9 cells using poly[Glu:Tyr] (4:1) as substrate after 60 mins
[26] = Cmax in NOD/SCID mouse at 0.5 mg/kg, ip administered as single dose by LC-MS/MS method; assay type: ADME, organism-based; set-up: dose 0.5 mg/kg, route intraperitoneal; conditions: in vivo
[27] = Tmax in NOD/SCID mouse at 0.5 mg/kg, ip administered as single dose by LC-MS/MS method; assay type: ADME, organism-based; conditions: in vivo
[28] = system: MCF7; assay: Cytotoxicity against human MCF7 cells at 5 uM by MTT assay; assay type: functional
[29] = system: Mus musculus; assay: Toxicity in NOD/SCID mouse assessed as phenotypic changes at 40 mg/kg, ip […]; assay type: organism-based; conditions: in vivo
[30] = biological target: Cyclin-dependent kinase 5/CDK5 activator 1 (Homo sapiens) (UniProt Q00535+Q15078); assay: Inhibition of human CDK5/p25 using histone H1 as substrate in presence of [gamma33P]ATP after 30 mins by scintillation counting method; assay type: protein-complex assay
[31] = system: Mus musculus; assay: Toxicity in NOD/SCID mouse assessed as phenotypic changes at 0.5 mg/kg, ip administered as single dose; assay type: organism-based; conditions: in vivo
[32] = biological target: Epidermal growth factor receptor (Homo sapiens) (UniProt P00533); assay: Inhibition of human EGFR (R669 to V1011 residues) expressed in bacterial expression system at 10 uM by KinomeScan method relative to control
[33] = system: SK-BR-3; assay: Cytotoxicity against human SKBR3 cells by MTT assay; assay type: functional, cell-based
[34] = system: Mus musculus; assay: In vivo inhibition of SRC phosphorylation in NOD/SCID mouse tumor xenografted with HER2-amplified human HCC1954 cells at 10 mg/kg, ip administered once daily for 18 days measured after 1 hr last dose; assay type: functional, organism-based
[35] = Cmax in NOD/SCID mouse at 10 mg/kg, ip administered twice by LC-MS/MS method; assay type: ADME, organism-based; set-up: dose 10 mg/kg, route intraperitoneal; conditions: in vivo

Which inhibition [1] does the source give for Cc1nc2nc(Sc3ccccc3)cnc2cc1NC(=O)Nc1ccccc1 here?
The inhibition was 5%.

What about the inhibition [2] of the same compound?
The inhibition was “Active”.

And the inhibition [3]?
Its inhibition is 6%.

What about the IC50 [4] of the same compound?
Its IC50 is 6.1 µM.

What about the Tmax [5] of the same compound?
The Tmax was 2 h.

What about the AUC(0-t) at 8 h [6] of the same compound?
The AUC(0-t) at 8 h was 2.85 µM·h.

What about the inhibition [7] of the same compound?
The inhibition was 8%.

And the inhibition [8]?
The inhibition was “inactive”.

And the inhibition [9]?
Its inhibition is 6%.

What about the inhibition [10] of the same compound?
Its inhibition is “inactive”.

What about the IC50 [11] of the same compound?
The IC50 was 1.5 µM.

What about the Activity [12] of the same compound?
The Activity was >50%.

And the inhibition [13]?
Its inhibition is “inactive”.

What about the Activity [14] of the same compound?
The Activity was 0.2 g.

What about the Activity [15] of the same compound?
Its Activity is “Non-Toxic”.

And the AUC(0-t) at 24 h [16]?
The AUC(0-t) at 24 h was 39.1 µM·h.

And the Activity [17]?
The Activity was >50%.

And the IC50 [18]?
The IC50 was 22 µM.

What about the inhibition [19] of the same compound?
Its inhibition is 0%.

And the inhibition [20]?
Its inhibition is 16%.

And the inhibition [21]?
The inhibition was 0%.

What about the AUC(0-t) at 8 h [22] of the same compound?
Its AUC(0-t) at 8 h is 19.9 µM·h.

What about the inhibition [23] of the same compound?
Its inhibition is 0%.

What about the Activity [24] of the same compound?
The Activity was >50%.

And the inhibition [25]?
Its inhibition is “inactive”.

What about the Cmax [26] of the same compound?
Its Cmax is 0.82 µM.

What about the Tmax [27] of the same compound?
Its Tmax is 0.5 h.

What about the Activity [28] of the same compound?
Its Activity is >50%.

What about the Activity [29] of the same compound?
Its Activity is “Toxic”.

What about the inhibition [30] of the same compound?
Its inhibition is “inactive”.

What about the Activity [31] of the same compound?
Its Activity is “Non-Toxic”.

What about the inhibition [32] of the same compound?
The inhibition was 8%.

And the IC50 [33]?
The IC50 was 1.8 µM.

And the inhibition [34]?
Its inhibition is “Active”.

What about the Cmax [35] of the same compound?
Its Cmax is 6.45 µM.
